Measurements: PubChem BioAssay (NCI)
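Five compound concentrations were applied to cells in 96-well plates for 48 hours; endpoints were derived by simple linear interpolation of the resulting dose-response curve. TGI marks complete inhibition of growth.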

Experiments:
Test in all cases: NCI anticancer screen, dose series, 48 h
[1] = test system: NCI-H23 lung
[2] = test system: HS 578T breast
[3] = test system: SF-539 CNS
[4] = test system: SN12C renal
[5] = test system: EKVX NSCLC
[6] = test system: A549 NSCLC
[7] = test system: NCI-H460 lung
[8] = test system: SF-295 CNS
[9] = test system: UACC-62 melanoma
[10] = test system: HCT-116 colon
[11] = test system: CAKI-1 renal
[12] = test system: RPMI-8226 leukemia
[13] = test system: SW-620 colon
[14] = test system: BT-549 breast
[15] = test system: MOLT-4 leukemia
[16] = test system: HCT-15 colon
[17] = test system: HCC-2998 colon
[18] = test system: COLO 205 colon
[19] = test system: UO-31 renal
[20] = test system: RXF 393 renal
[21] = test system: HOP-62 NSCLC
[22] = test system: SK-MEL-2 melanoma
[23] = test system: OVCAR-3 ovarian
[24] = test system: ACHN renal
[25] = test system: OVCAR-4 ovarian
[26] = test system: SK-OV-3 ovarian
[27] = test system: OVCAR-5 ovarian
[28] = test system: NCI-H522 lung
[29] = test system: SR leukemia
[30] = test system: SNB-75 CNS
[31] = test system: KM12 colon
[32] = test system: SNB-19 CNS
[33] = test system: MALME-3M melanoma
[34] = test system: PC-3 prostate
[35] = test system: 786-0 renal
[36] = test system: MDA-MB-435
[37] = test system: DU-145 prostate
[38] = test system: HT29 colon
[39] = test system: UACC-257 melanoma
[40] = test system: OVCAR-8 ovarian
[41] = test system: T-47D breast
[42] = test system: IGROV1 ovarian
[43] = test system: MDA-N
[44] = test system: NCI-H226 lung
[45] = test system: A498 renal
[46] = test system: MDA-MB-231 breast
[47] = test system: SF-268 CNS
[48] = test system: MCF7 breast
[49] = test system: SK-MEL-28 melanoma
[50] = test system: K-562 leukemia
[51] = test system: LOX IMVI melanoma
[52] = test system: CCRF-CEM leukemia
[53] = test system: HL-60(TB) leukemia
[54] = test system: M14 melanoma
[55] = test system: TK-10 renal
[56] = test system: U251 CNS
[57] = test system: SK-MEL-5 melanoma
[58] = test system: NCI/ADR-RES ovarian
[59] = test system: HOP-92 NSCLC

Compound: C[N+](C)([O-])CCCNc1ccnc2cccc([N+](=O)[O-])c12
- TGI [1]: > 100 µM
- TGI [2]: 77.6 µM
- TGI [3]: 53.1 µM
- TGI [4]: > 100 µM
- TGI [5]: > 100 µM
- TGI [6]: > 100 µM
- TGI [7]: 31.3 µM
- TGI [8]: > 100 µM
- TGI [9]: > 100 µM
- TGI [10]: > 100 µM
- TGI [11]: > 100 µM
- TGI [12]: 57.6 µM
- TGI [13]: > 100 µM
- TGI [14]: > 100 µM
- TGI [15]: 67.6 µM
- TGI [16]: 61.6 µM
- TGI [17]: > 100 µM
- TGI [18]: 46.4 µM
- TGI [19]: > 100 µM
- TGI [20]: 79.1 µM
- TGI [21]: > 100 µM
- TGI [22]: 45.8 µM
- TGI [23]: 44.9 µM
- TGI [24]: > 100 µM
- TGI [25]: 55.3 µM
- TGI [26]: > 100 µM
- TGI [27]: > 100 µM
- TGI [28]: 28 µM
- TGI [29]: > 100 µM
- TGI [30]: > 100 µM
- TGI [31]: > 100 µM
- TGI [32]: > 100 µM
- TGI [33]: 87.6 µM
- TGI [34]: > 100 µM
- TGI [35]: > 100 µM
- TGI [36]: > 100 µM
- TGI [37]: 44.1 µM
- TGI [38]: > 100 µM
- TGI [39]: > 100 µM
- TGI [40]: > 100 µM
- TGI [41]: > 100 µM
- TGI [42]: > 100 µM
- TGI [43]: > 100 µM
- TGI [44]: > 100 µM
- TGI [45]: > 100 µM
- TGI [46]: > 100 µM
- TGI [47]: 97.5 µM
- TGI [48]: > 100 µM
- TGI [49]: > 100 µM
- TGI [50]: > 100 µM
- TGI [51]: > 100 µM
- TGI [52]: > 100 µM
- TGI [53]: 54.1 µM
- TGI [54]: > 100 µM
- TGI [55]: > 100 µM
- TGI [56]: > 100 µM
- TGI [57]: 33.4 µM

Compound: COC(=O)C(Cc1nc2ccccc2[nH]c1=O)C(=O)C(=O)Nc1cc(C(F)(F)F)ccc1Cl (stereo not given)
- TGI [1]: 30.4 µM
- TGI [2]: 43.2 µM
- TGI [4]: 54.8 µM
- TGI [5]: 39 µM
- TGI [58]: 53.3 µM
- TGI [6]: > 100 µM
- TGI [7]: 39.9 µM
- TGI [8]: 71.2 µM
- TGI [9]: 53.4 µM
- TGI [10]: 32.1 µM
- TGI [11]: 33.4 µM
- TGI [12]: 51.5 µM
- TGI [13]: > 100 µM
- TGI [14]: 44.5 µM
- TGI [15]: 48.2 µM
- TGI [16]: 26.7 µM
- TGI [17]: 26.4 µM
- TGI [19]: 28.9 µM
- TGI [20]: 46.3 µM
- TGI [21]: 35.1 µM
- TGI [22]: 34.9 µM
- TGI [23]: 25.4 µM
- TGI [24]: 24.5 µM
- TGI [25]: 27.9 µM
- TGI [26]: > 100 µM
- TGI [27]: 33.5 µM
- TGI [28]: 19 µM
- TGI [29]: > 100 µM
- TGI [30]: 46.1 µM
- TGI [31]: 28.3 µM
- TGI [33]: 31.4 µM
- TGI [34]: 34.4 µM
- TGI [35]: 25.2 µM
- TGI [36]: > 100 µM
- TGI [38]: 28.6 µM
- TGI [39]: > 100 µM
- TGI [40]: 30 µM
- TGI [41]: 44.7 µM
- TGI [42]: 25.3 µM
- TGI [43]: > 100 µM
- TGI [44]: 35.1 µM
- TGI [45]: > 100 µM
- TGI [46]: 52.5 µM
- TGI [47]: 36.4 µM
- TGI [48]: 27.4 µM
- TGI [49]: > 100 µM
- TGI [50]: > 100 µM
- TGI [51]: 31.5 µM
- TGI [59]: 32.5 µM
- TGI [52]: 48.2 µM
- TGI [53]: 54.2 µM
- TGI [54]: 30.9 µM
- TGI [55]: 44 µM
- TGI [56]: 66.6 µM
- TGI [57]: 56 µM

Compound: C=CCN1CCC2(CC1)NC(=O)c1ccccc1O2
- TGI [1]: > 100 µM
- TGI [2]: > 100 µM
- TGI [3]: > 100 µM
- TGI [4]: > 100 µM
- TGI [5]: > 100 µM
- TGI [58]: > 100 µM
- TGI [6]: > 100 µM
- TGI [7]: > 100 µM
- TGI [8]: > 100 µM
- TGI [9]: > 100 µM
- TGI [10]: > 100 µM
- TGI [11]: > 100 µM
- TGI [12]: > 100 µM
- TGI [13]: > 100 µM
- TGI [14]: > 100 µM
- TGI [15]: > 100 µM
- TGI [16]: > 100 µM
- TGI [17]: > 100 µM
- TGI [18]: > 100 µM
- TGI [19]: > 100 µM
- TGI [20]: > 100 µM
- TGI [21]: > 100 µM
- TGI [22]: > 100 µM
- TGI [23]: > 100 µM
- TGI [24]: > 100 µM
- TGI [25]: > 100 µM
- TGI [26]: > 100 µM
- TGI [27]: > 100 µM
- TGI [28]: > 100 µM
- TGI [29]: > 100 µM
- TGI [30]: > 100 µM
- TGI [31]: > 100 µM
- TGI [32]: > 100 µM
- TGI [33]: > 100 µM
- TGI [34]: > 100 µM
- TGI [35]: > 100 µM
- TGI [36]: > 100 µM
- TGI [37]: > 100 µM
- TGI [38]: > 100 µM
- TGI [39]: > 100 µM
- TGI [40]: > 100 µM
- TGI [41]: > 100 µM
- TGI [42]: > 100 µM
- TGI [43]: > 100 µM
- TGI [44]: > 100 µM
- TGI [46]: > 100 µM
- TGI [47]: > 100 µM
- TGI [48]: > 100 µM
- TGI [49]: > 100 µM
- TGI [50]: > 100 µM
- TGI [51]: > 100 µM
- TGI [59]: > 100 µM
- TGI [52]: > 100 µM
- TGI [53]: > 100 µM
- TGI [54]: > 100 µM
- TGI [55]: > 100 µM
- TGI [56]: > 100 µM
- TGI [57]: > 100 µM
